Test results published in US20130028986A1, “Pharmaceutical Compositions” (SABAREP LIMITED, priority 2005, published 2013).

Test system: skin or epidermal barrier (skin treated with clobetasol propionate)
Experiment: Topical corticosteroid induced protease skin barrier damage model (tape stripping, TEWL)
Assay type: in vivo, human (volunteer)
Settings: for rate of TEWL increase during tape stripping: compared to control and vehicle alone, up to 20 tape strips
From the text: Topical glucocorticoids (corticosteroids), which are used in the treatment of atopic dermatitis, damage the skin barrier and cause changes to the lipids within the epidermis, and a reduction in the number corneodesmosomes holding the corneocytes together. […] Therefore, skin that has been pretreated with gluticocorticoids can provide a good model in which to test the efficacy of compounds for their capacity to restore the skin or epidermal barrier and to be useful in the treatment of dermato logical conditions that compromise the skin or epidermal barrier, particularly those involving an abnormal decrease in the cell-to-cell adhesion between epithelial cells (in particular between corneocytes) such as atopic eczema or dermatitis, sebarrhoeic eczema, irritant contact dermatitis, allergic contact dermatitis and other sensitive skin conditions. […] The techniques disclosed by Kao et al. provide a measure of barrier integrity and corneocyte cohesion (any increases in TEWL are indicative of a loss in barrier function and increases in total protein removed by the skin strips are the result of a loss of intercellular cohesion, and vice versa). The methods employed by Kao were therefore used in the following examples. The TEWL measurements were taken using an “Aquaflux AF 102” electrolytic water analyser (Available from Biox Systems Ltd, Southwark Campus, 103 Borough Road, London SE1 0AA, UK) in the manner described in Berg et al. (Berg, E. P. Pascut, F. C, Ciortea, L. L, O'Driscoll, D., Xiao, P. and Imhof, R. E. (2002), Aquaflux—A new instrument for water vapour flux density measurement Proceedings of the 4th International Symposium on Humidity and Moisture, Centre for Measurement Standards, ITRI, RoC, ISBN 957-774-423-0, pp. 288-95) and Ciortea et al. (Ciortea, L. I. O'Driscoll, D., Berg, E. P., Xiao, P., Pascut, F. C. and Imhof, R. E. (2002), New methods for measuring water desorption and vapour permeation rates in membranes Proceedings of the 4th International Symposium on Humidity and Moisture, Centre for Measurement Standards, ITRI, RoC, ISBN 957-774-423-0, pp. 288-95).
Microfine zinc oxide (available from BASF Aktiengesellschaft, 67056 Ludwigshafen, Germany, under the trade mark Z-Cote®, item no. 55082355, or from Univar, Basildon, Essex, UK, as item no. 76011010; see also: Z-Cote®, BASF; Mitchnick, M. A., Fairhurst, D. and Pinnell, S. R. (1999) J Am Acad Dermatol 40: 85-90) (25%) in light liquid paraffin was applied twice a day to a volunteer's left forearm for 4 days; their right forearm received light liquid paraffin only. One fingertip unit of clobetasol propionate (a potent corticosteroid) was then applied twice a day to the study areas for 3 days. TEWL was then measured at base line and following the removal of 4, 8, 12 and 16 tape strips.
Microfine zinc oxide, 5 and 15%, in light liquid paraffin was applied twice a day to a volunteer's the left bicep and left forearm for 4 days, respectively; the right bicep received light liquid paraffin only. […] TEWL was then measured at base line and following the removal of 4, 8, 12 and 16 tape strips. […]
Four finger dips of 12 mg/ml zinc stearate in light liquid paraffin were applied to the right forearm for 9 days, twice daily. […] On day 10, TEWL was measured at base line following the removal of 4, 8, 12 and 16 tape strips. […]

Question: How did the “protection against the effects of clobetasol (TEWL at base line and after 4, 8, 12 and 16 tape strips)” value (Example Ic, FIG. 4, 12 mg/ml in light liquid paraffin twice daily for 9 days on right forearm, clobetasol propionate twice a day on days 6 to 9, TEWL on day 10) turn out when zinc stearate was run?
Answer: The value was “can also protect against the effects of clobetasol”.

Question: `[O-2].[Zn+2]` [Microfine zinc oxide, zinc oxide] was tested. Which “reduction in TEWL following the removal of 16 tape strips” value (Example Ia, FIG. 2, 25% in light liquid paraffin twice a day for 4 days on left forearm, then clobetasol propionate twice a day for 3 days, compared with light liquid paraffin only) did it give?
Answer: Its value is 37.5%.

Question: And the “protective effect (TEWL at base line and after 4, 8, 12 and 16 tape strips)” value (Example Ib, FIG. 3, 5 and 15% in light liquid paraffin twice a day for 4 days, clobetasol propionate twice a day for 3 days, compared with light liquid paraffin only)?
Answer: The value was “dose-dependant response”.

Question: What about the “rate of TEWL increase during tape stripping” value (Example Ie, FIG. 6, zinc oxide 25% (alone or with 12 mg/ml palmitic acid) in PEG400/ethanol (7:3) 6 times a day for 4 days, clobetasol propionate 3 times over 48 hours) of the same compound?
Answer: The value was “significantly reduced”.

Question: `CCCCCCCCCCCCCCCC(=O)O` [palmitic acid, Hexadecanoic acid] was tested. Which “rate of TEWL increase during tape stripping” value (Example Id, FIG. 5, 12 mg/ml in PEG400/ethanol (7:3) 6 times a day for 4 days, then clobetasol propionate 3 times over 24 hours) did it give?
Answer: The value was “significantly reduced”.
